Results published in patent publication US5508450A, “Benzopyran derivatives” (Ono Pharmaceutical Co., Ltd., priority 1989, dated 1996).
Where a name gives a salt, the structure may show the parent alone.

System: Lysozyme (dimer formation with fructose)
Assay: Inhibitory activity on Maillard reaction: formation of lysozyme dimer (lysozyme + fructose, SDS-PAGE, densitometer)
Assay type: biochemical
Settings: lysozyme 10 mg/ml, fructose 100 mM, 0.2M sodium phosphate buffer pH 7.4, 37° C., 3 days
Procedure: The inhibitory activity on Maillard reaction of the compounds of the present invention has confirmed by the screening system mentioned below. Lysozyme (10 mg/ml) and fructose (100 mM) were dissolved in 0.2M sodium phosphatic buffer solution (PH 7.4). The solution was incubated at a temperature of 37° C. for 3 days. A given volume of the reaction solution was separated using SDS-PAGE by the electrophoresis. After the electrophoresis, the SDS-PAGE was dyed by 0.2% Coomassie Brilliant Blue R-250 and then the dimer was determined by densitometer. The compounds of the present invention were added before incubation and the inhibitory activity of them against the formation of the dimer was examined in various concentrations and IC50 values were calculated.

Compound	IC50
Cc1c(C)c2c(c(C)c1O)CCC(C)(CCCCNC(=O)/C=C/c1ccc(NC(=N)N)cc1)O2 (stereo not drawn) [Example 22, N-[4-(6-hydroxy-2,5,7,8-tetramethyl-3,4-dihydro-2H-benzo[1,2-b]pyran-2-yl)butyl]-4-guanidinocinnamamide hydrochloride]	48 µM
Cc1cc(OCCC2(C)CCc3c(C)c(O)c(C)c(C)c3O2)ccc1NC(=O)/C=C/c1ccc(NC(=N)N)cc1 (stereo not drawn) [7 (f), N-[2-methyl-4-[2-(6-hydroxy-2,5,7,8-tetramethyl-3,4-dihydro-2H-benzo[1,2-b]pyran-2-yl)ethoxy]phenyl]-4-guanidinocinnamamidehydrochloride]	18 µM
Cc1c(C)c2c(c(C)c1O)CCC(C)(CCCCOc1ccc(NC(=O)/C=C/c3ccc(NC(=N)N)cc3)cc1)O2 (stereo not drawn) [Example 9, N-[4-[4-(6-hydroxy-2,5,7,8-tetramethyl-3,4-dihydro-2H-benzo[1,2-b]pyran-2-yl)butoxy]phenyl]-4-guanidinocinnamamide hydrochloride]	6.2 µM
Cc1c(C)c2c(c(C)c1O)CCC(C)(CCCCNC(=N)NN)O2 (stereo not drawn) [Example 8, 1-amino-3-[4-(6-hydroxy-2,5,7,8-tetramethyl-3,4-dihydro-2H-benzo[1,2-b]pyran-2-yl)butyl]guanidine hydroiodide]	300 µM
Cc1c(C)c2c(c(C)c1O)CCC(C)(CCCCOc1ccc(NC(=O)c3ccc(NC(=N)N)cc3)cc1)O2 (stereo not drawn) [9 (a), N-[4-[4-(6-hydroxy-2,5,7,8-tetramethyl-3,4-dihydro-2H-benzo[1,2-b]pyran-2-yl)-butoxy]phenyl]-4-guanidinobenzamidehydrochloride]	10 µM
Cc1c(C)c2c(c(C)c1O)CCC(C)(CCCCOc1ccc(NC(=N)N)cc1C(F)(F)F)O2 (stereo not drawn) [10 (a), 2-trifluoromethyl-4-guanidinophenyl 4-(6-hydroxy-2,5,7,8-tetramethyl-3,4-dihydro-2H-benzo[1,2-b]-pyran-2-yl)butyl ether hydrochloride]	21 µM
Cc1c(C)c2c(c(C)c1O)CCC(C)(CCSCCOc1ccc(NC(=N)N)cc1)O2 (stereo not drawn) [27 (b), 4-guanidinophenyl 2-[2-(6-hydroxy-2,5,7,8-tetramethyl-3,4-dihydro-2H-benzo[1,2-b]-pyran-2-yl)ethylthio]ethyl ether hydrochloride]	190 µM
Cc1c(C)c2c(c(C)c1O)CCC(C)(CCCCCCSc1ccc(NC(=N)N)cc1)O2 (stereo not drawn) [Example 29, 4-guanidinophenyl 6-(6-hydroxy-2,5,7,8-tetramethyl-3,4-dihydro-2H-benzo[1,2-b]pyran-2-yl)-n-hexyl thioether hydrochloride]	7.5 µM
Cc1c(C)c2c(c(C)c1O)CCC(C)(CCOc1ccc(NC(=N)N)cc1C(F)(F)F)O2 (stereo not drawn) [5 (b), 2-trifluoromethyl-4-guanidinophenyl 2-(6-hydroxy-2,5,7,8-tetra-methyl-3,4-dihydro-2H-benzo[1,2-b]pyran-2-yl)ethyl ether hydrochloride]	74 µM
Cc1c(C)c2c(c(C)c1O)CCC(C)(CCOc1ccc(CCCNC(=N)NN)cc1)O2 (stereo not drawn) [Example 19, 4-[3-(3-aminoguanidino)propyl]phenyl 2-(6-hydroxy-2,5,7,8-tetramethyl-3,4-dihydro-2H-benzo[1,2-b]pyran-2-yl)ethyl ether hydroiodide]	56 µM
Cc1c(C)c2c(c(C)c1O)CCC(C)(CCN(C)C(=O)/C=C/c1ccc(NC(=N)N)cc1)O2 (stereo not drawn) [Example 24, N-methyl-N-[2-(6-hydroxy-2,5,7,8-tetramethyl-3,4-dihydro2H-benzo[1,2-b]pyran-2-yl)ethyl]-4-guanidinocinnamamide hydrochloride]	180 µM
Cc1c2c(c3ccccc3c1O)OC(C)(CCOc1ccc(NC(=N)N)cc1)CC2 (stereo not drawn) [5 (f), 4-guanidinophenyl 2-(2,5-dimethyl-6-hydroxy-3,4-dihydro-2H-naphtho[1,2-b]-pyran-2-yl)ethyl ether hydrochloride]	22 µM
Cc1c(C)c2c(c(C)c1O)CCC(C)(CCSc1ccc(NC(=O)c3ccc(NC(=N)N)cc3)cc1)O2 (stereo not drawn) [7 (h), N-[4-[2-(6-hydroxy-2,5,7,8-tetramethyl-3,4-dihydro-2H-benzo[1,2-b]pyran-2-yl)-ethylthio]phenyl]-4-guanidinobenzamidehydrochloride]	19 µM
Cc1c(C)c2c(c(C)c1O)CCC(C)(CCCCCCOc1ccc(NC(=N)N)cc1)O2 (stereo not drawn) [29 (a), 4-guanidinophenyl 6-(6-hydroxy-2,5,7,8-tetramethyl-3,4-dihydro-2H-benzo[1,2-b]pyran-2-yl)-n-hexyl ether hydrochloride]	20 µM
COc1c(O)c(C)c2c(c1OC)OC(C)(CCOC(=O)c1ccc(NC(=N)N)cc1)CC2 (stereo not drawn) [1 (d), 2-(2,5-dimethyl-6-hydroxy-7,8-dimethoxy-3,4-di-hydro-2H-benzo[1,2-b]pyran-2-yl)-ethyl4-quanidinobenzoate hydrochloride]	340 µM
Cc1c(C)c2c(c(C)c1O)CCC(C)(CCOc1ccc(NC(=O)/C=C/c3ccc(NC(=N)N)cc3)cc1C(F)(F)F)O2 (stereo not drawn) [7 (c), N-[3-trifluoromethyl-4-[2-(6-hydroxy-2,5,7,8-tetramethyl-3,4-dihydro-2H-benzo[1,2-b]pyran-2-yl)-ethoxy]phenyl]-4-guanidino-cinnamamide hydrochloride]	4.8 µM
Cc1c(C)c2c(c(C)c1O)CCC(C)(CCOc1ccc(NC(=O)c3ccc(NC(=N)N)cc3)cc1C(F)(F)F)O2 (stereo not drawn) [7 (k), N-[4-[2-(6-hydroxy-2,5,7,8-tetramethyl-3,4-dihydro-2H-benzo[1,2-b]pyran-2-yl)-ethoxy]-3-trifluoromethyl-phenyl]-4-guanidinobenzamidehydrochloride]	12 µM
Cc1c(C)c2c(c(C)c1O)CCC(C)(CCCCSc1ccc(NC(=O)/C=C/c3ccc(NC(=N)N)cc3)cc1)O2 (stereo not drawn) [9 (d), N-[4-[4-(6-hydroxy-2,5,7,8-tetramethyl-3,4-dihydro-2H-benzo[1,2-b]pyran-2-yl)-butylthio]phenyl]-4-guanidinocinnamamidehydrochloride]	5.4 µM
Cc1c(C)c2c(c(C)c1O)CCC(C)(CCCCOc1ccc(CCSc3ccc(NC(=N)N)cc3)cc1)O2 (stereo not drawn) [28 (c), 4-guanidinophenyl 2-[4-[4-(6-hydroxy-2,5,7,8-tetramethyl-3,4-dihydro-2H-benzo[1,2-b]-pyran-2-yl)butoxy]phenyl]-ethyl thioether hydrochloride]	4.2 µM
Cc1c(C)c2c(c(C)c1O)CCC(C)(CC=CCCCCNC(=N)NN)O2 (stereo not drawn) [Example 23, 2-[7-(3-aminoguanidino)hept-2-enyl]-6-hydroxy-2,5,7,8-tetramethyl-3,4-dihydro-2H-benzo[1,2,-b]pyran hydroiodide]	130 µM
CCOC(=O)c1cc(NC(=N)N)ccc1OCCC1(C)CCc2c(C)c(O)c(C)c(C)c2O1 (stereo not drawn) [Example 15, 2-ethoxycarbonyl-4-guanidinophenyl 2-(6-hydroxy-2,5,7,8-tetramethyl-3,4-dihydro-2H-benzo[1,2-b]pyran-2-yl)ethyl ether hydrochloride]	220 µM
CCOC(=O)c1cc(NC(=N)N)cc(C(=O)Nc2ccc(OCCC3(C)CCc4c(C)c(O)c(C)c(C)c4O3)cc2)c1 (stereo not drawn) [Example 17, N-[4-[2-(6-hydroxy-2,5,7,8-tetramethyl-3,4-dihydro-2H-benzo[1,2-b]pyran-2-yl)ethoxy]phenyl]-3-ethoxycarbonyl-5-guanidinobenzamide hydrochloride]	13 µM
COc1cc(NC(=O)/C=C/c2ccc(NC(=N)N)cc2)ccc1OCCC1(C)CCc2c(C)c(O)c(C)c(C)c2O1 (stereo not drawn) [7 (e)]	30 µM
Cc1c(C)c2c(c(C)c1O)CCC(C)(CCN(Cc1ccccc1)C(=O)/C=C/c1ccc(NC(=N)N)cc1)O2 (stereo not drawn) [24 (a), N-benzyl-N-[2-(6-hydroxy-2,5,7,8-tetramethyl-3,4-dihydro-2H-benzo[1,2-b]pyran-2-yl)ethyl]-4-guanidinocinnamamide hydrochloride]	68 µM
Cc1cc(OCCC2(C)CCc3c(C)c(O)c(C)c(C)c3O2)ccc1NC(=N)N (stereo not drawn) [5 (c), 3-methyl-4-guanidino-phenyl 2-(6-hydroxy-2,5,7,8-tetramethyl-3,4-dihydro-2H-benzo[1,2-b]pyran-2-yl)ethyl ether hydrochloride]	500 µM
Cc1c(C)c2c(c(C)c1O)CCC(C)(CCOc1ccc(NC(=O)COc3ccc(NC(=N)N)cc3)cc1)O2 (stereo not drawn) [7 (l), N-[4-[2-(6-hydroxy-2,5,7,8-tetramethyl-3,4-dihydro-2H-benzo[1,2-b]pyran-2-yl)-ethoxy]phenyl]-4-guanidinophenoxyacetamidehydrochloride]	54 µM
CC(=O)Nc1cc(NC(=O)/C=C/c2ccc(NC(=N)N)cc2)ccc1OCCC1(C)CCc2c(C)c(O)c(C)c(C)c2O1 (stereo not drawn) [7 (d), N-[3-acetoamide-4-[2-(6-hydroxy-2,5,7,8-tetramethyl-3,4-dihydro-2H-benzo[1,2-b]-pyran-2-yl)ethoxy]phenyl]-4-guanidinocinnamamidehydrochloride]	48 µM
Cc1c(C)c2c(c(C)c1O)CCC(C)(CCCCOc1ccc(NC(=O)/C=C/c3ccc(NC(=N)N)cc3)cc1C(F)(F)F)O2 (stereo not drawn) [9 (l), N-[4-[4-(6-hydroxy-2,5,7,8-tetramethyl-3,4-dihydro-2H-benzo[1,2-b]pyran-2-yl)-butoxy]-3-trifluoromethyl-phenyl]-4-guanidino-cinnamamide hydrochloride]	6.6 µM
Cc1c(C)c2c(c(C)c1O)CCC(C)(CCOc1ccc(CCOc3ccc(NC(=N)N)cc3)cc1)O2 (stereo not drawn) [Example 27, 4-guanidinophenyl 2-[4-[2-(6-hydroxy-2,5,7,8-tetramethyl-3,4-dihydro-2H-benzo[1,2-b]pyran-2-yl)ethoxy]phenyl]ethyl ether hydrochloride]	5.8 µM
N-[4-[2-(6-hydroxy-2,5,7,8-tetramethyl-3,4-dihydro-2H-benzo[1,2-b]pyran-2-yl)-ethoxy]phenyl]-3-guanidino-cinnamamide hydrochloride [7 (b)]	12 µM
